Laboratory results from patent US20170340688A1, “TITRATED EXTRACTS OF CYNARA SCOLYMUS AND USES THEREOF” (priority 2014, published 2017).
Values after ≈ are worked out from the molar mass of the structure shown.

Legend:
STAT3 [1] = molecular target: T1, STAT3 (Homo sapiens, UniProt P40763); assay: Modulation of the STAT3 pathway in KARPAS cells (Western Blot, EMSA); assay type: cell-based; conditions: extract 200 μg/ml (0.181% cynaropicrin) 2-4 hours, cynaropicrin 25 μM
Method: (§1) The cells were lysed in ice for 30 min in lysis buffer NP40 (50 mM Tris-HCl pH 7.4, 150 mM NaCl, 1% NP-40, 1 mM EGTA, 1 mM EDTA) complemented with inhibitors of protease and phosphatase (5 mM PMSF, 3 mM NaF, 1 mM DTT, 1 mM NaVO4). Equal amounts of total extracts of protein (30 μg) were broken down by means of denaturing electrophoresis (SDS-PAGE) in 8% polyacrylamide gel and transferred for 2 hours on nitrocellulose membrane. The membranes were blocked with a 5% solution of milk dissolved in TBS-Tween_20 0.05% for 1 hour and incubated with the specific primary antibodies. The following primary antibodies were used: anti-beta actin (A-2228, SIGMA), anti-pSTAT3 (Tyr-705) (sc8059, Santa Cruz) and anti-STAT3 (sc7179, Santa Cruz). The secondary antibodies were peroxidase-conjugated (Santa Cruz), and ECL reagents (Amersham, GE Healthcare, Piscataway, N.J., USA) were used for the chemiluminescence.
(§2) 200 μg/ml of extract that contains 0.181% of cynaropricrin contain 1.2 μM of cynaropricrin.

[2] = tested on: confluent prostatic adenocarcinoma cell line DU145; assay: WST-1 cell vitality assay, confluent DU145 (high levels of constitutively activated STAT3); assay type: cell-based, human
Method: FIG. 7 Assay of cell vitality in the confluent prostatic adenocarcinoma cell line DU145, treated with various concentrations of artichoke extract (50-600 μg/ml) for various treatment times (24 and 48 hours) with indications of the content in cynaropicrin of the extract. The confluency of the cells increases the levels of constitutively activated STAT3, making the cells themselves largely resistant to death. The vitality was analysed using the WST-1 assay (WST-1 test, see the experimental section for the conditions). […] The squares show the trend over 24 hours and the circles show the trend at 48 hours with extract doses from 0 to 600 μg/ml and the respective content in cynaropicrin, expressed both in μg/ml and in μM, of the extract at the various concentrations (100, 200, 300, 400, 500, 600 μg/ml).
FIG. 8. […] The vitality was analysed using the WST-1 assay (WST-1 test, see the experimental section for the conditions). […]
Cytotoxicity was assayed using the WST assay (WSTs=water soluble tetrazolium salts) which utilises the ability of mitochondrial dehydrogenases to separate the tetrazole ring from the yellow-coloured WST molecule (tetrazolium salt) to give an orange formazan salt. The amount of formazan produced following the treatment of the cells with the substances being tested is measured using spectrophotometry and is proportional to the number of living cells. […]

[3] = tested on: human carcinoma cells DU145; assay: WST-1 cell vitality in co-treatment with chemotherapeutic agents, DU145; assay type: cell-based
Method: Cytotoxicity was assayed using the WST assay (WSTs=water soluble tetrazolium salts) which utilises the ability of mitochondrial dehydrogenases to separate the tetrazole ring from the yellow-coloured WST molecule (tetrazolium salt) to give an orange formazan salt. The amount of formazan produced following the treatment of the cells with the substances being tested is measured using spectrophotometry and is proportional to the number of living cells. WST-1 and in particular WST-8 (2-(2-methoxy-4-nitrophenyl)-3-(4-nitrophenyl)-5-(2,4-disulfophenyl)-2H-tetrazolium) are advantageous with respect to MTT because they reduce outside the cells, in combination with PMS as electron mediator, to produce water-soluble formazan.
The assays were carried out in parallel with variable doses of cynaropicrin in place of the extract, to compare the efficacy of the extract and that of cynaropicrin.

GSH = assay: Intracellular analysis of GSH (colorimetric); assay type: cell-based; conditions: cynaropicrin 12.5, 25, 50 μM
Method: The intracellular concentration of GSH was evaluated by means of a colorimetric method. The cell extract, deproteinised by means of 10% trichloroacetic acid, was treated with dithio nitrobenzene (DTNB), and the quantity of TNB, which is released following the reaction with GSH, was evaluated by analysing the absorbance at 412 nm.

STAT3 [4] = assay: Glutathionylation of STAT3; assay type: cell-based; conditions: cynaropicrin 12 microM, 25 μM
Method: STAT3 was immunoprecipitated by incubating the protein cell extract overnight with an anti-STAT3 antibody. The proteins obtained were separated by means of SDS-PAGE in non-reducing conditions and were transferred on PVDF membrane. The glutathionylated STAT3 was recognised using an anti-GSH antibody.

STAT3 [5] = molecular target: T1, STAT3; assay: Modulation of the STAT3 pathway in DU145 cells (Western Blot, EMSA); assay type: cell-based; parameters: The cell line DU145 expresses pStat3 in a constitutive manner; endogenous in cells; host or cells: DU145 (human prostate carcinoma, ATCC HTB-81); conditions: extract 200 μg/ml (0.181% cynaropicrin) 2-4 hours, cynaropicrin 25 μM
Method: as §1, §2

MDA-MB231 = assay: Cell vitality by Trypan Blue/Countess, MDA-MB231 under normoxia; assay type: cell-based; conditions: Homo sapiens, MDA-MB-231, 24 hours
Method: Human breast cancer cell lines T47-D and MDA-MB231, human colorectal adenocarcinoma line HT-29, human prostate cancer line DU145, human uterine cervix carcinoma cell line HeLa, human hepatocarcinoma cell line HepG2 (ATCC, American Type Culture Collection) were cultivated in DMEM (BioWhittaker, Cambrex Bio Science, Belgium) in a 5% CO2 atmosphere at 37° C.
(§3) Cell vitality was assessed with a 0.4% Trypan Blue exclusion test, using an automated Countess cell counter (Life Technologies™).
(§4) The model created appears adapted for the study of plant extracts to be used in association with the classic chemotherapeutic agents. Then cells were treated with doxorubicin, with plant extracts or with their association, and cell vitality was analysed by Trypan Blue/Countess Invitrogen as described in the annexed Materials and Methods. The following treatments were performed:
MDA-MB231 cells cultivated under normoxia and under chronic hypoxia were treated for 24 hours with various concentrations of doxorubicin, elective drug in the treatment of breast cancer.

in vitro = assay type: cell-based, human; conditions: human
Method: (§5) To establish a chronic hypoxia model, the above cell lines were cultivated in DMEM with 10% FBS in 5% CO2 and 1% O2 atmosphere, balanced with N using a multigas incubator (Ruskinn C300, Ruskinn Technology Ltd., Bridgend, United Kingdom). Cells survived through each cell passage were selected and cultivated with reoxygenation and hypoxia cycles for at least 3 months and up to 6 months.
as §3
(§6) In order to re-create a state of chronic hypoxia, present in the interior of a solid tumour, all cell lines indicated in the table above were cultivated for some months in the Ruskin Cabinet at 37° C., under a 1% O2 atmosphere. The medium was changed every three days so as to eliminate dead cells, and approximately every 10-15 days the cells were placed in the incubator under normoxia conditions for 24 hours.
(§7) Among all cells analysed, only MDA-MB231 cell line adapted to the hypoxic environment and survived. […]
as §4, with “The following treatments were performed:” left out

ChR-MDA-MB231 = assay: cells; assay type: cell-based, human; conditions: Homo sapiens; chMDAMB231, chronic hypoxia; 24 hours; read-out: EC50 cell vitality
Method: as §5, §3, §6, §7
as §4, with “The following treatments were performed:” left out

T1 sequence (P40763 whole entry): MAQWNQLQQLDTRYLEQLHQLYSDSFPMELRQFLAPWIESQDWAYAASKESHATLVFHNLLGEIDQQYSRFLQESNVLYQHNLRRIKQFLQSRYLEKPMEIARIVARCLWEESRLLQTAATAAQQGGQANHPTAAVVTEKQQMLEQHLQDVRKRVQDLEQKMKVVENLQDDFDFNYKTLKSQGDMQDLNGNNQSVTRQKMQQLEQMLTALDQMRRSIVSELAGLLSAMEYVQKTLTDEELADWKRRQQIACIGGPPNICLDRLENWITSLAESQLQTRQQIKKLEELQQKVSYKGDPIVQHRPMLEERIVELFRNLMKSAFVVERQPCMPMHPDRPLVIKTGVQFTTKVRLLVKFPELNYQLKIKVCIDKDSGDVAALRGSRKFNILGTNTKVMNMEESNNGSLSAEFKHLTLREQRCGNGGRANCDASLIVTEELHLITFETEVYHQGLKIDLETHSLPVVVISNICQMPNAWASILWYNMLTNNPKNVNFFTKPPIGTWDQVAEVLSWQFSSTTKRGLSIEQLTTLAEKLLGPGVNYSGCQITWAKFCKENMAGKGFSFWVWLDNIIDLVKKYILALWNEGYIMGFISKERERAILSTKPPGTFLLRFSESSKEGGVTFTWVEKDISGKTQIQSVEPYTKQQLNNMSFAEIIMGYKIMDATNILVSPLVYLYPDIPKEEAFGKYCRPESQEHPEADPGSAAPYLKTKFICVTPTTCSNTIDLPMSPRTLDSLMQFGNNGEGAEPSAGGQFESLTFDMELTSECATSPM

Row | SMILES | binding of STAT3 to DNA (EMSA) (STAT3 [1]) | phosphorylation of STAT3 (Western Blot) (STAT3 [1]) | cell vitality (WST-1) ([2]; 24 and 48 hours, extract 50-600 μg/ml, cynaropicrin 0-70 μM) | concentration of cynaropicrin for reduction of vitality equal to approximately 90% ([2]; 48 hours, cynaropicrin alone) | molarity of cynaropicrin necessary to reduce cell vitality below 20%, relative to that present in the artichoke extract ([3]; with cisplatinum 15 μg/ml) | molarity of cynaropicrin necessary to reduce cell vitality below 20%, relative to that present in the artichoke extract ([3]; with doxorubicin 2 μg/ml) | intracellular concentration of GSH (GSH) | glutathionylation of STAT3 (STAT3 [4]) | binding of STAT3 to DNA (EMSA) (STAT3 [5]) | phosphorylation of STAT3 (Western Blot) (STAT3 [5]) | EC50 (MDA-MB231) | mortality at 0.25 ug/ml (in vitro) | EC50 (ChR-MDA-MB231)
1 | C=C(CO)C(=O)O[C@H]1CC(=C)[C@@H]2C[C@H](O)C(=C)[C@@H]2[C@H]2OC(=O)C(=C)[C@@H]21 [cynaropicrin] | inhibits the binding of STAT3 to DNA | inhibits the phosphorylation of STAT3 | inhibits cell vitality in a time-dependent and dose-dependent manner | 50 µM | forty times greater | approximately twenty-five times greater | time-dependent and dose-dependent reduction of the intracellular concentration of GSH | determines the glutathionylation of STAT3 | inhibit the binding of STAT3 to DNA | inhibit the phosphorylation of STAT3 | – | – | –
2 | COc1cccc2c1C(=O)c1c(O)c3c(c(O)c1C2=O)C[C@@](O)(C(=O)CO)C[C@@H]3O[C@H]1C[C@H](N)[C@H](O)[C@H](C)O1 [doxorubicin] | – | – | – | – | – | – | – | – | – | – | 0.25 µg/mL (≈ 0.46 µM) | 20% | 1 µg/mL (≈ 1.84 µM)
